Assay results published in patent US6809083B1, “Use of N-substituted-1, 5-dideoxy-1, 5-imino-D-glucitol compounds for treating hepatitis virus infections” (priority 1998, dated 2004).

Key:
[1] = test system: Hepatitis B Virus; experiment: IC-90 of N-nonyl-DNJ (T. Block and G. Jacob, unpublished observation); type: cell-based
Protocol: The anti-hepatitis B virus effect of (−)-2′-deoxy-3′-thiocytidine-5′-triphosphate (3TC) alone and in combination with N-nonyl-DNJ was determined according to Korba ((1996) Antiviral Research 29(1):49-51), using the “combostat” strategy (Comstat Program, Combostat Corp., Duluth, Minn.). The combostat method involves serially diluting the IC-90 of each compound. The IC-90 of N-nonyl-DNJ has been determined to be between 4 and 10 μg/ml (T. Block and G. Jacob, unpublished observation). The accepted IC-90 for 3TC in HepG 2.2.15 (2.2.15) cells is 300 nM to 500 nM (Doong et al. (1991) Proc. Natl. Acad. Sci. USA 88:8495-8499).

[2] = test system: woodchuck hepatitis virus (WHV); experiment: Woodchuck model, N-nonyl-DNJ monotherapy, BID oral dosing for 4 weeks; total HBV DNA and IPDNA by quantitative PCR; type: in vivo
From the text: In order to evaluate the efficacy of N-nonyl-DNJ in combination with 3TC (or other nucleoside or nucleotide analogs) against Hepatitis B virus in a woodchuck animal model, an monotherapy experiment using N-nonyl-DNJ alone was first conducted. This was necessary to determine if N-nonyl-DNJ has any anti-HBV effect in the woodchuck and, if N-nonyl-DNJ has a beneficial effect, to design a combination study based on the dose-response relationship of this drug alone.
Therefore, five groups of four animals each (all groups had both sexes, all but the control had two of each sex) were assigned to 0, 12.5, 25, 50, and 100 mg/kg/day with BID oral dosing. These were lab-reared wild animals. All animals were infected with woodchuck hepatitis virus (WHV) as neonates, and had been tested positive on serological tests for WHV surface antigen. Blood samples were drawn one week prior to dosing (−1 week), immediately before dosing (0 weeks), weekly during dosing (1, 2, 3, and 4 weeks), and after the end of dosing (5, 6, 8, and 10 weeks).
There are two measures of drug efficacy: reduction in total HBV DNA (measured by quantitative PCR), and reduction in HBV DNA from capsids with intact surface glycoproteins, which is the active form of the virus (measured by an ELISA-like immune precipitation assay followed by quantitative PCR).
Before models are fitted to the data, a log transform was applied because: 1) the variation in IPDNA increases with increasing IPDNA values; the log transformation gives values with a nearly constant variation, and 2) it is expected that drug effects will appear as a constant multiplier of the IPDNA level. Because there are zero values of IPDNA, a small value (about 1/2 of the smallest non-zero value) was added to all values before the log transform.
Two approaches were used to model the changes in slope to week with dose of N-nonyl-DNJ: a linear modeling approach and a nonlinear model. Both approaches assume that the (linear) rate of change of the Log(IPDNA) measure over the dosing period is the “right” measure to reflect the effect of the drug on the virus. Both approaches are fit in stages, and the first stage is common to both approaches. First, a simple straight line regression model is fit using weeks 0-4 to predict log(IPDNA+10) separately for each animal by run combination. In the second stage, the response variable is the slope fitted in the first stage.
For the linear approach, a model is fit with slope to week as the response where run is considered a block, dose has a significant effect (almost all of this effect is due to a slope to dose), and the relevant error for testing the effect of dose is the variation among animals treated alike (after the adjustment for the runs as blocks). This is similar to using the calibration data within each run to first adjust each run's data to a common virus DNA concentration; the difference is that here the data from the woodchucks are used for the run adjustment rather than only the calibration data.
For the nonlinear approach, a four parameter logistic model is fit with the slope to week as the response and the dose as the predictor. Again, run is considered a block, but because no run has all weeks, it is not possible to fully reflect the blocking in the nonlinear approach. […] The average maximum slope observed was 2.71 additional Log(IPDNA μg/mL)/week, or an increase of about 150%/week, the average minimum slope observed with N-nonyl-DNJ is 0.31 fewer Log(IPDNA μg/mL)/week), or about a decrease of about 25%/week. The slopes, the fitted model, the parameter estimates from the model, and the approximate standard errors for these parameters are all shown in FIG. 3. […] Whether in woodchucks or humans, the effective dose of both the N-alkyl-DNJ and nucleoside or nucleotide antiviral agent administered in combination therewith can be administered in two equal daily subdoses (i.e., B.I.D.).

[3] = test system: Hepatitis B Virus; experiment: Hepatitis B virus secretion from chronically HBV secreting HepG2.2.15 cells (preS1 immunoprecipitation of virions, PCR of viral DNA); type: cell-based; conditions: 3 days incubation
Protocol: (§1) The anti-hepatitis B virus activity and effect on cell viability of a number of different N-substituted-1,5-dideoxy-1,5-imino-D-glucitol compounds were assessed using an in vitro assay employing chronically hepatitis B virus secreting HepG2.2.15 cells. The method employed was essentially that described in Block et al. (1994) Proc. Natl. Acad. Sci. USA 91:2235-2239.

[4] = test system: HepG2.2.15 cells; experiment: Viability of HepG2.2.15 cells, trypan blue exclusion; type: cell-based; conditions: [200] and [1000]; trypan blue staining not performed
Protocol: as §1

[5] = concentration [200] (unit not given)
[6] = concentration [1000] (unit not given)

| SMILES | IC90 [1] [µg/mL] | effect on total HBV DNA measurements ([2]; woodchuck, all dose levels, pre-dose and dosed portions of the study) | average minimum slope observed ([2]; woodchuck, weeks 0-4) | decrease of IPDNA corresponding to average minimum slope ([2]; woodchuck, weeks 0-4) | increase of IPDNA corresponding to average maximum slope ([2]; woodchuck, weeks 0-4) | average maximum slope observed ([2]; woodchuck, weeks 0-4, upper end of dose-response model) | approximate effective monotherapy dose ([2]; woodchucks, oral) | Relative amount of HBV secreted, as a % of control [3, 5] | Relative amount of HBV secreted, as a % of control [3, 6] | Appearance of cells by gross microscopic examination [4] |
| --- | --- | --- | --- | --- | --- | --- | --- | --- | --- | --- |
| CCCCCCCCCN1C[C@H](O)[C@@H](O)[C@H](O)[C@H]1CO [Compound 1, N-(n-nonyl)-1,5-dideoxy-1,5-imino-D-glucitol] | 4 to 10 | no effect | 0.31 fewer Log(IPDNA μg/mL)/week | about 25 %/week | about 150 %/week | 2.71 additional Log(IPDNA μg/mL)/week | about 16 mg/kg/day |  |  |  |
| CCC(CC)CN1C[C@H](O)[C@@H](O)[C@H](O)[C@H]1CO [Compound 3, N-(2-ethylbutyl)-1,5-dideoxy-1,5-imino-D-glucitol] |  |  |  |  |  |  |  | 45.0 +/− 30 (n = 3) % of control | 5.0 +/− 20 (n = 3) % of control | ^5Although trypan blue viability staining was not performed, cells appeared unremarkable (healthy) by gross microscopic examination. |
| CCCCN1C[C@H](O)[C@@H](O)[C@H](O)[C@H]1CO [NBDNJ, N-(n-butyl-)-1,5-dideoxy-1,5-imino-D-glucitol, reference compound] |  |  |  |  |  |  |  | 37.0 +/− 13 (n = 15) % of control | 3.2 +/− 5 (n = 15) % of control |  |
